Series [1] has as its system human solid tumor cell lines A549, SW1573, HBL-100, T-47D, HeLa, WiDr. More on the design: method as in PMID 28728108. To be noted: same assay; read-out: GI50 of reference agent in the same assay; cited from earlier work.
Series [2] has as its system A549 (lung) human solid tumor cell line. The experiment in a line: Antiproliferative SRB assay (HTS), A549. It is filed as cell-based. To be noted: 48 h. The method, then: (§1) All reagents were used as purchased from commercial suppliers without further purification. The human solid tumor cell lines used in this study were: A549, SW1573 (lung), HBL-100, T-47D (breast), HeLa (cervix) and WiDr (colon). These cell lines were a kind gift from Prof. G.J. Peters (VU Medical Center, Amsterdam, The Netherlands).
(§2) Cells were inoculated onto 96-well microtiter plates in a volume of 100 μL per well at densities of 2500 (A549, HBL-100, HeLa, and SW1573) and 5000 (T-47D and WiDr) cells per well, based on their doubling times. Compounds were initially dissolved in DMSO at 400 times the desired final maximum test concentration. Control cells were exposed to an equivalent concentration of DMSO (0.25% v/v, negative control). Each agent was tested in triplicate at different dilutions in the range of 1–100 μM. The drug treatment started on day 1 after plating. Drug incubation times were 48 h, after which cells were precipitated with 25 μL ice-cold TCA (50% w/v) and fixed for 60 min at 4 °C. Then the SRB assay was performed. The optical density (OD) of each well was measured at 530 nm, using BioTek’s PowerWave XS Absorbance Microplate Reader. Values were corrected for background OD from wells only containing medium. The antiproliferative activity for each compound, expressed as GI50 values, was calculated according to NCI formulas.

Series [3] deals with SW1573 (lung) human solid tumor cell line. As to the kind of experiment: Antiproliferative SRB assay (HTS), SW1573. It is filed as cell-based. Particulars: 48 h. The method, then:
as §1, §2

For series [4], the system named is HBL-100 (breast) human solid tumor cell line. As to the kind of experiment: Antiproliferative SRB assay (HTS), HBL-100. It counts as cell-based. To be noted: 48 h. The protocol:
as §1, §2

Series [5] relates to T-47D (breast) human solid tumor cell line. As to the kind of experiment: Antiproliferative SRB assay (HTS), T-47D. It counts as cell-based. Particulars: T47D, 48 h. The method, then: as §1, §2
Series [6] relates to HeLa (cervix) human solid tumor cell line. The experiment in a line: Antiproliferative SRB assay (HTS), HeLa. It counts as cell-based. Particulars: 48 h. The protocol: as §1, §2
The test system of series [7] is WiDr (colon) human solid tumor cell line. The experiment in a line: Antiproliferative SRB assay (HTS), WiDr. It is filed as cell-based. Particulars: 48 h. The method, then: as §1, §2
In series [8] the test system is human solid tumor cell lines A549, SW1573, HBL-100, T-47D, HeLa, WiDr. As to the kind of experiment: Antiproliferative SRB assay (HTS), whole panel of six cell lines. It is filed as cell-based. To be noted: Homo sapiens; range over the six tumor cell lines; read-out: GI50 against all the cell lines tested. The protocol:
as §1, §2

For series [9], the system named is intracellular amastigotes of Leishmania donovani HU3. As to the kind of experiment: Susceptibility of intracellular Leishmania amastigotes (luciferase) in THP-1 macrophages. It is filed as cell-based. Particulars: L. donovani HU3 in macrophage-differentiated THP-1, 72 h, threshold 20 μM. The protocol: Macrophage-differentiated-THP-1 cells, which are considered a suitable model for human macrophages, were plated at a density of 3 × 10^4 macrophages/well in 96-well white polystyrene microplates, and were infected at a macrophage/parasite ratio of 1:10 with L. donovani HU3 promastigotes. 24 h after infection at 35 °C and 5% CO2, extracellular parasites were removed by washing with serum-free medium. Infected cell cultures were then incubated at different compound concentrations in RPMI 1640 medium plus 10% iFBS at 37 °C with 5% CO2 for 72 h. To determine the susceptibility of L. donovani-LUC amastigotes, infected macrophages maintained in 96-well plates were lysed and then luminescence intensity was measured as indicative of the intracellular parasite growth, using the Luciferase Assay System Kit (Promega, Madison, WI, USA) according to the instructions of the supplier.

Series [10] can be described thus: Cellular toxicity, MTT assay, THP-1. It counts as cell-based. Particulars: human, THP-1 cells differentiated to macrophages with PMA, maximal concentration 200 µM, read-out: EC50 THP-1 Cell Line (cytotoxicity). The protocol:
(§3) Human myelomonocytic cell line THP-1 was grown at 37 °C and 5% CO2 in RPMI-1640 supplemented with 10% iFBS, 2 mM […], 100 U/mL penicillin and 100 μg/mL streptomycin. 3 × 10^4 cells/well in 96-well plates were differentiated to macrophages with 20 ng/mL of PMA treatment for 48 h followed by 24 h of culture in fresh medium. MRC5 cells were grown at 37 °C and 5% CO2 in DMEM complete media. 4000 cells/well in 96-well plates were incubated for 24 h at 37 °C and 5% CO2.
(§4) Cellular toxicity of all compounds was determined using the colorimetric MTT-based assay after incubation at 37 °C for 72 h in the presence of increasing concentrations of compounds (final maximal concentrations 200 µM). The results are expressed as EC50 values, as the concentration of the compound that reduce cell growth by 50% versus untreated control cells. Assays were performed in triplicate.

Series [11] is described as follows: Cellular toxicity, MTT assay, MRC-5. It is filed as cell-based. Particulars: human, MRC-5 cells, maximal concentration 200 µM, read-out: EC50 MRC-5 Cell Line (cytotoxicity). The method, then: as §3, §4
For the next series, the system named is Bv.2 microglia cells. As to the kind of experiment: Cellular viability by crystal violet staining. It is filed as cell-based, mouse. To be noted: Bv.2 cells, 24 h, different concentrations. The method, then:
(§5) Mouse microglia Bv.2 cell line was supplied by Dr. M.L. Nieto (IBGM, Valladolid, Spain). Bv.2 cells were cultured at 37 °C in a humidified atmosphere with 5% CO2 in RPMI supplemented with 10% (v/v) heat-inactivated FBS, 1% (v/v) penicillin/streptomycin (Sigma) and 2 mM L-glutamine (Gibco, Carlsbad, CA, USA). Cells were grown up to 70% confluence and then washed twice with PBS and further cultured in serum-free medium and stimulated with LPS (200 ng/mL) with or without 14/10 (0.1–50 µM) for 24 h.
After cell treatments, the medium was discarded, and the remaining viable adherent cells were stained with crystal violet (0.2% w/v in 2% ethanol) for 20 min. After this time, plates were rinsed with tap water and allowed to dry, and 1% SDS was added to solubilize them. The absorbance of each plate was read spectrophotometrically at 560 nm.

For series [12], the system named is nitrite production in Bv.2 microglial cells. The experiment in a line: Nitrite production in LPS-stimulated Bv.2 cells (Griess method). It is filed as cell-based, mouse. To be noted: LPS 200 ng/mL, 24 h. The protocol:
as §5
Nitrite levels were measured by using the Griess method. Briefly, nitrites turn into a pink compound in contact with an acid solution containing 1% sulphanilamide and 0.1% N-(1-naphthyl)ethylenediamine (NEDA), and can be quantified by a colorimetric method at 540 nm in a microplate reader (Versamax Tunable Microplate reader, Molecular Devices, Sunnyvaley, CA, USA).

Series [13] has as its system iNOS expression in Bv.2 microglial cells. The experiment in a line: LPS-induced iNOS protein expression (Western blot). It is filed as cell-based, mouse. Particulars: Bv.2 cells, LPS 200 ng/mL, compound at 50 μM (five-fold higher concentration). The method, then:
as §5
(§6) Bv.2 microglial cells were homogenized in lysis buffer containing 50 mM Tris-HCl, pH 7.4, 150 mM NaCl, 1 mM Na3VO4, 1 mM NaF, 1 mM EGTA, […] and 0.25% (w/v) sodium deoxycholate, supplemented with protease inhibitors (10 µg/mL leupeptin, 10 µg/mL aprotinin, and 100 µg/mL phenylmethylsulphonyl fluoride). All debris was removed by centrifugation at 14,000× g for 10 min at 4 °C and protein concentration was quantified using the Bio-Rad protein assay with BSA as a standard. Equivalent amounts of protein were resolved using denaturing sodium dodecyl sulphate-polyacrylamide gel electrophoresis (SDS-PAGE), followed by transfer to PVDF membranes (Bio-Rad). […]
(§7) Densitometry of the Western blots was performed using the ImageJ program. […] Data were analyzed by one-way ANOVA followed by Bonferroni t-test or by paired t-test when comparisons were among two groups. […]

Series [14] concerns arginase-1 expression in Bv.2 microglial cells. As to the kind of experiment: Arginase-1 levels (Western blot). It counts as cell-based, mouse. Particulars: Bv.2 cells, absence or presence of LPS 200 ng/mL; 10 at 10 μM, 14 at 50 μM. The method, then:
as §5, §6, §7

Where two headings read alike, the source gives them in different places.

Turning to `O=c1[nH]cc(F)c(=O)[nH]1` [Compound 5-FU, 5-fluorouracyl], in series [1], the GI50 was 5 to 50 µM.
`CCCCCCCCCCCCS[C@@H]1[C@H](O)[C@@H](O)[C@H](O)[C@H]2COC(=O)N21` [Compound 14, (1R)-1-dodecylthio-5N,6O-oxomethylidenenojirimycin]: the GI50 amounted to 16 µM in series [2]; 18 µM in series [3]; 17 µM in [4]; 18 µM in [5]; 17 µM in series [6]; 18 µM in [7]. Further, the GI50 in series [8] was 16 to 28 µM. Moreover, in series [9], the EC50 was > 20 µM. Moreover, the concentration for a half-maximal effect (EC50) at 72 h in [10] worked out at 70.5 ± 3.75 µM; in series [11], 43.1 ± 9.83 µM. Moreover, the “effect on cellular viability” value in the series with Bv.2 microglia cells was “none of the concentrations used induced a negative effect”. In addition, in [12], the “concentration at which nitrite production reached basal level” value came out at 50 µM. The “iNOS increase remaining after treatment (LPS alone 20-fold)” value in [13] is “about 8 fold”. Also, the “induction of arginase-1” value in series [14] is reported as “did not induce arginase-1 expression”.

Source of the values: article PMC8705409, “Synthesis of sp^2-Iminosugar Selenoglycolipids as Multitarget Drug Candidates with Antiproliferative, Leishmanicidal and Anti-Inflammatory Properties” (Molecules, 2021).
